Test results taken from PubChem BioAssay AID1994 (Broad Institute, 2009).
Results filed as inconclusive are left out. Activity calls are given as the source filed them. The rule behind the calls is not given here.

Tested on: H4 cells, PrP 5'UTR luciferase reporter translation
Assay: inhibitors of PrP 5'UTR-driven reporter translation, dose response, luminescence (AID 1994)

Structure (SMILES)	EC50
C=C(C=O)CC1CC(O)[C@]2(C)OC3CC4OC5C[C@]6(C)O[C@]7(C)CCC8OC9C[C@]%10(C)OC%11C(C)=CC(=O)OC%11CC%10OC9C[C@@H](C)C8OC7CC6O[C@]5(C)CC5OC5C4OC3CC2O1 (some centres not stated)	1580 nM
C#CCOCCOCCOCCNc1nc(N2CCN(C(=O)CCCCCCCCCCNC(=O)[C@H](CO)n3cc(CCCSC)nn3)CC2)nc(N2CCN(C(=O)CCCCCCCCCCNC(=O)[C@H](CCCCN)n3cc(C[C@@H](C)CC)nn3)CC2)n1	> 12000 nM (inactive)
